Measured values taken from US20160150766A1, “ADVANCING GENETIC GAIN IN BOVINE” (priority 2013, published 2016).

Test system: prepubescent calves
Assay: Laparoscopic oocyte retrieval from superstimulated prepubescent calves
Assay type: in vivo, bovine
Details: calves 3.5-6 months of age, superstimulated: progesterone CIDR, FSH s.c. at 12-hour intervals (20/15/10 mg/dose), 50 mg LH i.v.; aspiration 23 hours after LH
Method: Laparoscopic oocyte retrieval in prepubescent calves younger than six months of age provides an avenue of shortening the generation interval, thus increasing the rate of genetic gain. […] Three laparoscopic oocyte retrievals were performed on each calf, and the oocytes collected were fertilized in vitro and cultured to the blastocyst stage of development. Resulting embryos were transferred fresh into synchronized recipients, and pregnancies were carried out to Day 60. On average, nine oocytes were retrieved per aspiration when the calves were superstimulated. An average of six oocytes were retrieved from calves that had no FSH treatment.
Calves 3.5-6 months of age were used as egg donors. Initially a progesterone releasing device designed for sheep (Eazi Breed CIDR, Zoetis, USA) containing 0.3 g progesterone was inserted into the vagina of each calf and remained there for 12 days. The device was then removed for six days. A new CIDR was inserted and left for 12 days.
Superstimulation started nine days after insertion of the CIDR with the injection of […] follicle stimulating hormone (FSH) s.c. at 12-hour intervals, starting with two doses of 20 mg/dose, then two doses of 15 mg/dose, and finally two doses of 10 mg by the last injections. The CIDR was removed at the time of the final FSH injection and 50 mg of LH administered i.v. 2.5 days after removal of the CIDR. […]

follicle stimulating hormone [FSH]
oocytes retrieved per aspiration (average): nine
